Source: ChEMBL document CHEMBL1139311, “Synthesis of biflavones having a 6-O-7'' linkage and effects on cyclooxygenase-2 and inducible nitric oxide synthase” (Bioorg Med Chem Lett, 2009)
pIC50: −log10 of the molar value.

Experiments:
Assay type in all cases: cell-based
[1] = target: T1, Prostaglandin G/H synthase 2 (Mus musculus, UniProt Q05769); assay: Inhibition of COX2-mediated PGE2 production in LPS-stimulated mouse RAW264.7 cells by ELISA
T1 sequence (Q05769 whole entry): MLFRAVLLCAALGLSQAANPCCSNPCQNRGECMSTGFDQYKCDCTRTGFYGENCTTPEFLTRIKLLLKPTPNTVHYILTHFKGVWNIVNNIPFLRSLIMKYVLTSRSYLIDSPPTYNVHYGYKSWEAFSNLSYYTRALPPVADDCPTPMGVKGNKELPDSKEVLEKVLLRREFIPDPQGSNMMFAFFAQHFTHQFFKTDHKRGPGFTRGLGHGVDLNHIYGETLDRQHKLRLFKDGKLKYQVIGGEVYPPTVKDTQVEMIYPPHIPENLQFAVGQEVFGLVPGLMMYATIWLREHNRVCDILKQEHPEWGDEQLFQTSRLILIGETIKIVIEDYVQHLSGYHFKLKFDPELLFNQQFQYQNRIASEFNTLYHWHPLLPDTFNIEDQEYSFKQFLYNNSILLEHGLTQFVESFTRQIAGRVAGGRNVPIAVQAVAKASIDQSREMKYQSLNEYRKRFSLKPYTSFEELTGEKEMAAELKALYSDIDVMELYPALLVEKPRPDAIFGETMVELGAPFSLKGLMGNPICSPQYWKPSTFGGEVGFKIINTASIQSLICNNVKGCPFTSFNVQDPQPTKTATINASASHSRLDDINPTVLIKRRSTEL

[2] = target: T2, Nitric oxide synthase, inducible (Mus musculus, UniProt P29477); assay: Inhibition of iNOS-mediated NO production in LPS-stimulated mouse RAW264.7 cells by Griess method
T2 sequence (P29477 whole entry): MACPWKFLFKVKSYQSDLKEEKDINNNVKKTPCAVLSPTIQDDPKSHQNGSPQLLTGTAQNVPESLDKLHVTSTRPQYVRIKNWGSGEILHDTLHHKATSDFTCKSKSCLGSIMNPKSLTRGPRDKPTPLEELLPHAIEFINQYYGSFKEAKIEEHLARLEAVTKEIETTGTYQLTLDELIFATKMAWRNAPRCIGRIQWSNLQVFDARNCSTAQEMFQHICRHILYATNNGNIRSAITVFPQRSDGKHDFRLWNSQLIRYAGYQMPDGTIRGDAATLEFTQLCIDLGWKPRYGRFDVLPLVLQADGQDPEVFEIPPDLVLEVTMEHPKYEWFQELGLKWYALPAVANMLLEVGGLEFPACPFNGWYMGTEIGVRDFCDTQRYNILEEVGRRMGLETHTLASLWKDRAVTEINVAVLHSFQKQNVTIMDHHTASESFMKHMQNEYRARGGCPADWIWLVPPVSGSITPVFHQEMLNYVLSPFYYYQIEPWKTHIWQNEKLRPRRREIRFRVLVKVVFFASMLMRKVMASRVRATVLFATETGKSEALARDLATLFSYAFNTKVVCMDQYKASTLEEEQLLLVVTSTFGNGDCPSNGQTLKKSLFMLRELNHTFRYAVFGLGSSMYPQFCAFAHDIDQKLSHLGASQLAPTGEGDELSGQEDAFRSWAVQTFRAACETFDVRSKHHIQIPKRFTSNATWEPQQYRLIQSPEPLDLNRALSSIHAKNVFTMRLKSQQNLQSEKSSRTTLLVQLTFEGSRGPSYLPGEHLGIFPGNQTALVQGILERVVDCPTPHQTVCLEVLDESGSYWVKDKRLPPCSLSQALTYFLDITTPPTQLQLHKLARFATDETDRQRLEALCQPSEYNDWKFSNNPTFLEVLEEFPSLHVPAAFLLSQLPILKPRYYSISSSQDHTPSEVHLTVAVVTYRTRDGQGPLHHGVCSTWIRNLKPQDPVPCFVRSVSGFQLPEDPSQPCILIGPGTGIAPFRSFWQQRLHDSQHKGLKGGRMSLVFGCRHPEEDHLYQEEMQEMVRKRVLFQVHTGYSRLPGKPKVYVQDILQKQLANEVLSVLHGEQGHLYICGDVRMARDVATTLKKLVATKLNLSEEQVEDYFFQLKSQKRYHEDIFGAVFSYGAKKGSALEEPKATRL

[3] = target: T3, Nitric oxide synthase, inducible (Mus musculus) (UniProt P29477); assay: Inhibition of iNOS-mediated NO production in LPS-stimulated mouse RAW264.7 cells at […]
T3 sequence (whole entry): T2 sequence (P29477 whole entry)

## O=c1cc(-c2ccc(O)cc2)oc2cc(Oc3ccc4oc(-c5ccccc5O)cc(=O)c4c3)ccc12
[1]
  pIC50: < 4.30
[2]
  pIC50: 5.00

## O=c1cc(-c2ccccc2)oc2cc(Oc3ccc4oc(-c5ccccc5O)cc(=O)c4c3)ccc12
[1]
  pIC50: < 4.30

## O=c1cc(-c2ccc(O)cc2)oc2cc(Oc3ccc4oc(-c5ccc(O)cc5O)cc(=O)c4c3)ccc12
[1]
  pIC50: < 4.30
[2]
  pIC50: < 4.30

## O=c1cc(-c2ccccc2)oc2cc(Oc3ccc4oc(-c5ccccc5)cc(=O)c4c3)ccc12
[1]
  pIC50: > 5.70
[2]
  pIC50: < 4.30

## COc1ccc(-c2cc(=O)c3cc(Oc4ccc5c(=O)cc(-c6ccccc6)oc5c4)ccc3o2)cc1
[1]
  pIC50: 5.70

## O=c1cc(-c2ccc(O)cc2O)oc2cc(Oc3ccc4oc(-c5ccc(O)cc5O)cc(=O)c4c3)ccc12
[1]
  pIC50: 5.00
[2]
  pIC50: 5.00

## COc1ccc(-c2cc(=O)c3ccc(Oc4ccc5oc(-c6ccc(OC)cc6OC)cc(=O)c5c4)cc3o2)cc1
[1]
  pIC50: < 4.30
[2]
  pIC50: < 4.30

## O=c1cc(-c2ccc(O)cc2)oc2ccc(Oc3ccc4c(=O)cc(-c5ccc(O)cc5O)oc4c3)cc12
[1]
  pIC50: < 4.30
[2]
  pIC50: 4.30

## COc1ccccc1-c1cc(=O)c2cc(Oc3ccc4c(=O)cc(-c5ccccc5)oc4c3)ccc2o1
[1]
  pIC50: < 4.30

## COc1ccc(-c2cc(=O)c3cc(Oc4ccc5c(=O)cc(-c6ccc(OC)cc6OC)oc5c4)ccc3o2)cc1
[1]
  pIC50: < 4.30
[2]
  pIC50: < 4.30

## CC1CCN=C(N)S1 (stereo not drawn)
[3]
  inhibition: 92.5%

## O=c1cc(-c2ccccc2)oc2cc(Oc3ccc4oc(-c5ccc(O)cc5O)cc(=O)c4c3)ccc12
[1]
  pIC50: < 4.30

## COc1ccc(-c2cc(=O)c3cc(Oc4ccc5c(=O)cc(-c6ccccc6)oc5c4)ccc3o2)c(OC)c1
[1]
  pIC50: 5.70

## O=c1cc(-c2ccc(O)cc2)oc2cc(Oc3ccc4oc(-c5ccc(O)cc5)cc(=O)c4c3)ccc12
[1]
  pIC50: < 4.30

## COc1ccc(-c2cc(=O)c3ccc(Oc4ccc5oc(-c6ccc(OC)cc6OC)cc(=O)c5c4)cc3o2)c(OC)c1
[1]
  pIC50: 4.30
[2]
  pIC50: < 4.30
